Where only a bound is given, the exact number is not on record here.

In this assay the target is IgE-Tb / sFcεRIα-Y131A-AF488 (Homo sapiens, UniProt P01854, N146Q/N252Q). Kind of assay: IgE-Tb / sFcεRIα-Y131A-AF488 FRET assay (protocol for examples 234 to 501). Format: binding. As to conditions: examples 234 to 501: compound with IgE-Tb 30 minutes before sFcεRIα-Y131A-AF488, incubated 18 hours at room temperature; read-out: Y131A FRET IC50 range. How it is done: For examples 234 to 501, the assay was conducted according to the following: Each assay reaction was conducted in a volume of 25 μl in a 384-well half-volume plate. 10 point compound serial dilutions (3-fold) were generated in DMSO at a concentration of ×50 that of the final assay concentration (FAC). Compound solutions were then prepared by diluting 10-fold in assay buffer. For the assay, 5l of diluted compound was added to 10 μl of IgE-Tb and incubated for 30 minutes before the addition of 10 μ[…]. FRET reagents FACs were 5 nM IgE-Tb, 25 nM […]. Usually the top FAC of compound in the assay was 10 μM. The final DMSO concentration was 2%. […] The maximum FRET signal (MAX) was measured in wells containing FRET reagents but no compound. The assay was incubated for 18 hours at room temperature, protected from light and evaporation, and with gentle agitation. Measurement of FRET for each well was carried out by exciting at 337 nm and measuring emission at 490/520 nm using a PHERAstar FSX plate reader (BMG Labtech). FRET ratio was calculated as follows: Emission at 520/7Emission at 490×1000. The FRET ratio was used for the data analysis. […] Z' above 0.5 was considered a good assay. Background signal (MIN) was subtracted from all wells. […] Percent inhibition was plotted against compound concentration. IC50 values for each compound were determined using four parameter logistic fit model using the XLFIT5 software package.
Sequence of IgE-Tb / sFcεRIα-Y131A-AF488 (P01854 whole entry N146Q/N252Q): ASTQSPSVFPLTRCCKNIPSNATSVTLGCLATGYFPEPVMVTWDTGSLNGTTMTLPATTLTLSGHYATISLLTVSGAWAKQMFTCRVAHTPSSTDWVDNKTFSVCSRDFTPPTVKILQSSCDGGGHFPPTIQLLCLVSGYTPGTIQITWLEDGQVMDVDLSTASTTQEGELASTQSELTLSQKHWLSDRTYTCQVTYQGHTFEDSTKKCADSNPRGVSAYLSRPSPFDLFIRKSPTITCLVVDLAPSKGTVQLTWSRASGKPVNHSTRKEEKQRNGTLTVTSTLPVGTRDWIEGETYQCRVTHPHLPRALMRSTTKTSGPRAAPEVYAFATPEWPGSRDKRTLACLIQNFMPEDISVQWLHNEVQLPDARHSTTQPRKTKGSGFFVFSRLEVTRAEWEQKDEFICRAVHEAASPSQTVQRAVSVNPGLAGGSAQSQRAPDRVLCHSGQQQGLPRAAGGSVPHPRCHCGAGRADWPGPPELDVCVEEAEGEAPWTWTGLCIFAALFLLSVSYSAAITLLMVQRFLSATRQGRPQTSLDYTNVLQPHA

Take `COc1cc(Nc2nncn2[C@H]2CCc3sc(NC(=O)[C@H]4C[C@@H]4C)c(C(=O)N[C@@H]4CC45CC5)c3C2)n(C)n1` (relative stereo) [Example 465, (5S)-5-[3-[(5-methoxy-2-methyl-pyrazol-3-yl)amino]-1,2,4-triazol-4-yl]-2-[[(1S,2S)-2-methylcyclopropanecarbonyl]amino]-N-[(2R*)-spiro[2.2]pentan-2-yl]-4,5,6,7-tetrahydrobenzothiophene-3-carboxamide [* or 5]]: the IC50 (usually the midpoint of a concentration-inhibition curve) was less than 1000 nM. In the case of `Cn1nc(C(F)F)cc1Nc1nncn1[C@H]1CCc2sc(NC(=O)[C@H]3C[C@H](F)C3)c(C(=O)NC[C@H]3CC3(F)F)c2C1` (relative stereo) [Example 472, (5S)—N-[[(1R*)-2,2-difluorocyclopropyl]methyl]-5-[3-[[5-(difluoromethyl)-2-methyl-pyrazol-3-yl]amino]-1,2,4-triazol-4-yl]-2-[trans-(3-fluorocyclobutanecarbonyl)amino]-4,5,6,7-tetrahydrobenzothiophene-3-carboxamide [* or S]], the IC50 was less than 1000 nM. For `Cn1nc(C(F)F)cc1Nc1nncn1[C@H]1CCc2sc(NC(=O)[C@H]3CC3(F)F)c(C(=O)NC[C@H]3C[C@H]3F)c2C1` (relative stereo) [Example 498, (5S)-2-[[(1R*)-2,2-difluorocyclopropanecarbonyl]amino]-5-[3-[[5-(difluoromethyl)-2-methyl-pyrazol-3-yl]amino]-1,2,4-triazol-4-yl]-N-[[(1R,2R)-2-fluorocyclopropyl]methyl]-4,5,6,7-tetrahydrobenzothiophene-3-carboxamide (* or S)], the IC50 is less than 1000 nM.

Regarding `Cc1cc(Nc2nncn2[C@H]2CCc3sc(NC(=O)[C@H]4CC45CC5)c(C(=O)NCC4CC4)c3C2)n(C)n1` (relative stereo) [Example 500, (5S)—N-(cyclopropylmethyl)-5-[3-[(2,5-dimethylpyrazol-3-yl)amino]-1,2,4-triazol-4-yl]-2-[[(2S*)-spiro[2.2]pentane-2-carbonyl]amino]-4,5,6,7-tetrahydrobenzothiophene-3-carboxamide (* or R)], the IC50 is less than 1000 nM.

Turning to `O=C(NCC1CC1)c1c(NC(=O)C2CC2)sc2c1C[C@@H](n1cnnc1NC1CCS(=O)(=O)C1)CC2` (single isomer, unassigned) [Example 234, (5S)-2-(cyclopropanecarbonylamino)-N-(cyclopropylmethyl)-5-[3-[[(3S*)-1,1-dioxothiolan-3-yl]amino]-1,2,4-triazol-4-yl]-4,5,6,7-tetrahydrobenzothiophene-3-carboxamide], the IC50 is less than 1000 nM. Consider `Cc1c(Nc2nncn2[C@H]2CCc3sc(NC(=O)C4CC4)c(C(=O)NCC4CC4)c3C2)cccc1[S@@](C)(=N)=O` (single isomer, unassigned) [Example 236], for which the IC50 is less than 1000 nM. The result for `Cc1c(Nc2nncn2[C@H]2CCc3sc(NC(=O)C4CC4)c(C(=O)NCC4CC4)c3C2)cccc1[S@](C)(=N)=O` (single isomer, unassigned) [Example 237] reads less than 1000 nM; that for `CC(=O)N1CC[C@](C)(Nc2nncn2[C@H]2CCc3sc(NC(=O)C4CC4)c(C(=O)NCC4CC4)c3C2)C1` (single isomer, unassigned) [Example 239, (5S)-5-[3-[[(3*)-1-acetyl-3-methyl-pyrrolidin-3-yl]amino]-1,2,4-triazol-4-yl]-2-(cyclopropanecarbonylamino)-N-(cyclopropylmethyl)-4,5,6,7-tetrahydrobenzothiophene-3-carboxamide], less than 1000 nM.

In the case of `CC1CN(S(C)(=O)=O)CC1Nc1nncn1[C@H]1CCc2sc(NC(=O)C3CC3)c(C(=O)NCC3CC3)c2C1` (single isomer, unassigned) [Example 242], the half-inhibitory concentration (IC50) was less than 1000 nM. The result for `C[S@](=N)(=O)c1cccc(Nc2nncn2[C@H]2CCc3sc(NC(=O)C4CC4)c(C(=O)NCC4CC4)c3C2)c1` (single isomer, unassigned) [Example 253] reads less than 1000 nM; that for `C[S@@](=N)(=O)c1cccc(Nc2nncn2[C@H]2CCc3sc(NC(=O)C4CC4)c(C(=O)NCC4CC4)c3C2)c1` (single isomer, unassigned) [Example 254], less than 1000 nM; that for `CS(=O)(=O)c1cccc(Nc2nncn2[C@H]2CCc3sc(NC(=O)C4CC45CC5)c(C(=O)NCC4CC4)c3C2)n1` (single isomer, unassigned) [Example 256, (5S)—N-(cyclopropylmethyl)-5-[3-[(6-methylsulfonyl-2-pyridyl)amino]-1,2,4-triazol-4-yl]-2-[[(2S*)-spiro[2.2]pentane-2-carbonyl]amino]-4,5,6,7-tetrahydrobenzothiophene-3-carboxamide], less than 1000 nM. The same measure for `CC1CCCCC1Nc1nncn1[C@H]1CCc2sc(NC(=O)C3CC3)c(C(=O)NCC3CC3)c2C1` (single isomer, unassigned) [Example 269]: less than 1000 nM; for `O=C1CC(Nc2nncn2[C@H]2CCc3sc(NC(=O)C4CC4)c(C(=O)NCC4CC4)c3C2)CN1` (single isomer, unassigned) [Example 271, (5S)-2-(cyclopropanecarbonylamino)-N-(cyclopropylmethyl)-5-[3-[[(3R*)-5-oxopyrrolidin-3-yl]amino]-1,2,4-triazol-4-yl]-4,5,6,7-tetrahydrobenzothiophene-3-carboxamide]: less than 1000 nM. The result for `CC1C(Nc2nncn2[C@H]2CCc3sc(NC(=O)C4CC4)c(C(=O)NCC4CC4)c3C2)CCN1S(C)(=O)=O` (single isomer, unassigned) [Example 274] reads less than 1000 nM; that for `Cc1ccc(C2CC(Nc3nncn3[C@H]3CCc4sc(NC(=O)C5CC5)c(C(=O)NCC5CC5)c4C3)C2)cn1` (single isomer, unassigned) [Example 276], less than 1000 nM; that for `Cn1nc(C(F)F)cc1Nc1nncn1[C@H]1CCc2sc(NC(=O)C3CC3(F)F)c(C(=O)NC[C@H]3C[C@H](F)C3)c2C1` (single isomer, unassigned) [Example 278, (5S)-2-[[(1R*)-2,2-difluorocyclopropanecarbonyl]amino]-5-[3-[[5-(difluoromethyl)-2-methyl-pyrazol-3-yl]amino]-1,2,4-triazol-4-yl]-N-[trans-(3-fluorocyclobutyl)methyl]-4,5,6,7-tetrahydrobenzothiophene-3-carboxamide], less than 1000 nM. Regarding `Cn1nc(OC(F)F)cc1Nc1nncn1[C@H]1CCc2sc(NC(=O)C3CC3(F)F)c(C(=O)N[C@H]3C[C@H](F)C3)c2C1` (single isomer, unassigned) [Example 279, (5S)-2-[[(1R*)-2,2-difluorocyclopropanecarbonyl]amino]-5-[3-[[5-(difluoromethoxy)-2-methyl-pyrazol-3-yl]amino]-1,2,4-triazol-4-yl]-N-(trans-3-fluorocyclobutyl)-4,5,6,7-tetrahydrobenzothiophene-3-carboxamide], the IC50 is less than 1000 nM.

For the molecule `Cn1nc(OC(F)F)cc1Nc1nncn1[C@H]1CCc2sc(NC(=O)C3CC3(F)F)c(C(=O)NC[C@H]3C[C@H](F)C3)c2C1` (single isomer, unassigned) [Example 280, (5S)-2-[[(1R*)-2,2-difluorocyclopropanecarbonyl]amino]-5-[3-[[5-(difluoromethoxy)-2-methyl-pyrazol-3-yl]amino]-1,2,4-triazol-4-yl]-N-[trans-(3-fluorocyclobutyl)methyl]-4,5,6,7-tetrahydrobenzothiophene-3-carboxamide], the IC50 was less than 1000 nM.

Regarding `Cn1nc(OC(F)F)cc1Nc1nncn1[C@H]1CCc2sc(NC(=O)C3CC3(F)F)c(C(=O)NC[C@@H]3C[C@@H]3F)c2C1` (single isomer, unassigned) [Example 281, (5S)-2-[[(1S*)-2,2-difluorocyclopropanecarbonyl]amino]-5-[3-[[5-(difluoromethoxy)-2-methyl-pyrazol-3-yl]amino]-1,2,4-triazol-4-yl]-N-[[(1S,2S)-2-fluorocyclopropyl]methyl]-4,5,6,7-tetrahydrobenzothiophene-3-carboxamide], the IC50 was less than 1000 nM. Turning to `Cn1nc(C(F)F)cc1Nc1nncn1[C@H]1CCc2sc(NC(=O)C3CC3(F)F)c(C(=O)NCC3CC3(F)F)c2C1` (single isomer, unassigned) [Example 282], the IC50 is less than 1000 nM. The result for `Cn1nc(C(F)F)cc1Nc1nncn1[C@H]1CCc2sc(NC(=O)C3CC3(F)F)c(C(=O)NCC3CC3(F)F)c2C1` (single isomer, unassigned) [Example 283] reads less than 1000 nM; that for `O=C(NCC1CC1)c1c(NC(=O)C2CC2)sc2c1C[C@@H](n1cnnc1NC1CCC3(CCN(c4ncccn4)C3)C1)CC2` (single isomer, unassigned) [Example 289], less than 1000 nM. The result for `Cn1nc(OC(F)F)cc1Nc1nncn1[C@H]1CCc2sc(NC(=O)[C@H]3C[C@H]3F)c(C(=O)NCC3CC3)c2C1` (single isomer, unassigned) [Example 349] reads less than 1000 nM. Consider `Cn1nc(OC(F)F)cc1Nc1nncn1[C@H]1CCc2sc(NC(=O)[C@@H]3C[C@@H]3F)c(C(=O)NCC3CC3)c2C1` (single isomer, unassigned) [Example 350], for which the IC50 is less than 1000 nM. The same measure for `Cn1nc(C(F)F)cc1Nc1nncn1[C@H]1CCc2sc(NC(=O)[C@@H]3C[C@@H]3F)c(C(=O)NCC3CC3)c2C1` (single isomer, unassigned) [Example 362]: less than 1000 nM.

These data come from patent US12018021B2 (UCB Biopharma SRL, priority 2018, dated 2024).
